Experiments:
[1] = In vitro microsomal stability assay, guinea pig; type: in vitro ADME; details: pH 7.4; guinea pig liver microsomes, 1 μM compound, 37°C; read-out: Half-life (min) Mean (N = 2)
Protocol: The stability of IEM-1460 in the presence of guinea pig liver microsomes (BioIVT, PN: X008070) or IEM-1925 in the presence of human (BioIVT, PN: M00101), mouse, or guinea pig liver microsomes was evaluated (Paraza Pharma, Inc., Montreal, Quebec, Canada). Both IEM-1925 and IEM-1460 were incubated with microsomes at 37°C for a total of 45 min. Working solutions were prepared in 100 mM potassium phosphate buffer and the final reaction was performed at pH 7.4 in 100 mM potassium phosphate buffer containing 0.5 mg/mL liver microsomal protein. Phase I metabolism was assessed by adding NADPH to a final concentration of 1 mM and collecting samples at time points 0, 5, 15, 30, and 45 min. All collected samples were quenched 1:1 with ice-cold stop solution (1 μM labetalol and 1 μM glyburide in acetonitrile) and centrifuged to remove precipitated protein. […] Samples were analyzed by LC-MS/MS using a Thermo Vanquish UPLC and a Thermo Quantis triple quadrupole mass spectrometer. […] Reference compounds were also assessed to ensure accuracy and precision of experimental protocol: imipramine and verapamil for human liver microsomes, diphenhydramine and verapamil for mouse liver microsomes, and warfarin and verapamil for guinea pig liver microsomes. […] Half-life was determined from a plot of the natural logarithm of the peak area ratio (remaining compound peak area/internal standard peak area) against time. […]

[2] = tested on: auditory nerve compound action potential (CAP); experiment: Auditory nerve CAP after systemic (intraperitoneal) delivery; type: in vivo, guinea pig; details: for effect on CAP thresholds: 1 to 22 kHz; for CAP amplitude reduction, on average: after ~1 h, 8 kHz tone bursts at 90 dB SPL
Protocol: This study utilized 21 NIH-strain, pigmented guinea pigs weighing from 400 to 650 g, in accordance with policies and protocols approved by the Institutional Animal Care and Use Committee at Washington University in St. Louis (20180133, 20190035). Animals were anesthetized with intraperitoneal (IP) injection of 100 mg/kg sodium thiobutabarbital (Inactin, Sigma, St. Louis, MO). Once anesthetized, the fur from the head and neck was shaved and a tracheal cannula was placed. The animal was maintained on 0.8–1.2% isoflurane in oxygen using a mechanical ventilator. The ventilator's tidal volume was adjusted to maintain a 5% end-tidal CO2 which was monitored with a CapnoTrue AMP (Bluepoint Medical, Zevenaar, The Netherlands). Body temperature was maintained at 38 degrees C with a DC-powered heating blanket-rectal thermometer (Model 50-7079; Harvard Apparatus). Heart rate and oxygen saturation were monitored with a pulse oximeter (Surgivet, Waukesha, WI). The auditory bulla was exposed ventrally for placement of recording electrodes. The jugular vein was cannulated to maintain hydration with 0.5 mL per hour of Lactated Ringer's solution. To prevent middle ear muscle contractions, vecuronium bromide (0.2 mg/kg) was administered immediately prior to data collection and every 1.5 h thereafter.
As described for local delivery, cochlear output was measured similarly for systemic delivery of IEM-1460 and IEM-1925. Complete details have been previously published (Salt et al., [2013]). Briefly, acoustic tone bursts were applied in a closed sound system. The plastic extension tube of the acoustic assembly (Etymotic Research, ER-10 C) was coupled to the end of the hollow ear bar with the tube tip positioned ~1.5 mm from the tympanic membrane. Stimulus generation and data collection were performed with Tucker Davis System 3 hardware controlled by a custom written program (Microsoft Visual Basic). Stimulus waveforms were routed through a programmable Tucker Davis PA5 attenuator and HB7 headphone amplifier. Stimuli were calibrated from 0.125 to 26 kHz in 1/4 octave steps. A CAP audiogram was obtained at the beginning and end of the experiment. Up to 60 min of baseline audiometric data were obtained prior to drug delivery. Data with baseline changes >20% were excluded. A 13-level tone probe series, at selected frequencies, was repeated at 2-min intervals. Distortion product otoacoustic emissions (DPOAEs) were measured using an ER10C probe system. The two primary tone frequencies were set at 6 kHz (f1) and 7.4 kHz (f2), for a f2/f1-ratio of 1.23, with levels of 65 dB SPL (L1) and 55 dB SPL (L2).
At each probe frequency, CAP peak-to-peak amplitudes were measured from the first trough (N1) to the first peak (P1). Latencies were measured to the trough of N1. Cochlear output was compared before and after intraperitoneal drug delivery. The data were tested for normality using a Kolmogorov-Smirnov test. For CAP amplitude and latency, significance was assessed with the Mann-Whitney U-test. The Wilcoxon signed rank test was used to assess CAP threshold. Friedman test was used to compare concentrations of drug between perilymph and CSF. A p < 0.05 was considered statistically significant. A Bonferroni correction was used when performing multiple comparison testing. All statistical tests were performed with IBM SPSS Statistics Version 27 (SPSS Inc., Chicago, IL, United States).
After at least 30 min of baseline data, 1 mL of Lactated Ringer's was injected into the peritoneal space of the guinea pig as a vehicle control. Then, 13.5 mg/kg IEM-1460 or 8 mg/kg IEM-1925 in Lactated Ringer's was injected into the peritoneal space of the guinea pig. The entire experiment took ~3 h to complete: 1 h for anesthetic induction and surgery, 30 min for sound calibration and CAP threshold measurements, and 2 h for drug delivery, DPOAE and CAP measurements. After collection of perilymph and CSF, the animal was euthanized via saturated KCl delivered directly into the jugular vein. […]

[3] = IP injection: IEM-1460 13.5 mg/kg, IEM-1925 8 mg/kg
[4] = IP injection: IEM-1460 13.5 mg/kg, IEM-1925 8 mg/kg, N = 4

| Structure (SMILES) | half-life at 1 μM [1] | CAP reduction from baseline [2, 3] | effect on CAP thresholds [2, 4] | CAP amplitude reduction, on average [2, 4] | effect on CAP latency ([2]; IP 13.5 mg/kg, all tone levels, N = 4) | mean difference between pre- and post-injection CAP amplitudes ([2]; IP 13.5 mg/kg, exemplary recording, across tone levels) | relative reduction of CAP amplitude ([2]; IP 13.5 mg/kg, exemplary recording, probes of 40–90 dB SPL) | delay from IP injection to start of CAP reduction [2, 3] |
| --- | --- | --- | --- | --- | --- | --- | --- | --- |
| NCCCCCNC1(c2ccccc2)CCCCC1 [IEM-1925] | > 300 min | > 50% | minimal effect | ~ 20% | – | – | – | – |
| C[N+](C)(C)CCCCCNCC12CC3CC(CC(C3)C1)C2 [IEM-1460] | > 300 min | – | not statistically different | ~ 20% | no statistically significant difference | 19.1–269 μV | ~ 50% | 20 to 50 min |

Source: publication PMC8287724, “Reducing Auditory Nerve Excitability by Acute Antagonism of Ca^2+-Permeable AMPA Receptors” (Frontiers in Synaptic Neuroscience, 2021)
